“And” between values parts separate entries of the source, which are not always exact repeats. Identical values can stand only once.
What was measured:
[1] = tested on: Dickeya dadantii 3937 (Ech3937); assay: Bacterial growth in MM supplemented with compound; assay type: cell-based; conditions: compound added into the MM
Text: (§1) Phenolic compounds constitute an important class of organic substances produced by plants. The phenolic compound SA is a signaling molecule that plays a role in host defenses. OCA and TCA are the biosynthetic precursors of SA and are also reported to induce the expression of defense-related genes in plants. OCA, TCA, and SA were examined to elucidate their effects on the expression of T3SS genes. The expression of the T3SS gene hrpN was examined in MM and MM supplemented with OCA, TCA, and SA, at concentrations of 0.05, 0.1, and 0.2 mM, respectively. FIGS. 2A and 2B show the promoter activities of hrpN in Dickeya dadantii 3937 (Ech3937) grown in MM and MM supplemented with 0.05, 0.1, and 0.2 mM OCA, TCA, and SA at 12 h (FIG. 2A) and 24 h (FIG. 2B) post-inoculation. GFP intensity was determined on gated populations of bacterial cells by flow cytometry and analyzed with the Cell Quest software (BD Biosciences, San Jose, Calif.). The growth of Ech3937 in MM supplemented with different concentrations of OCA, TCA and SA was recorded. Compared with MM alone, the average GFP fluorescence intensity of bacterial cells of Ech3937 (phrpN) was increased approximately 4-fold when 0.05 mM of OCA and TCA were added to the medium (FIGS. 2A, 2B).
The expression of the T3SS gene hrpA was further examined in MM and MM supplemented with PCA at concentrations of 0.001, 0.005, 0.01, 0.05 and 0.1 mM respectively. FIGS. 16A and 16B show the promoter activities of hrpA in Dickeya dadantii 3937 (Ech3937) grown in minimum medium (MM) and MM supplemented with different amount of p-coumaric acid (PCA) at 12 h (FIG. 16A) and 24 h (FIG. 16B) post-inoculation. GFP intensity was determined on gated populations of bacterial cells by flow cytometry and analyzed with the Cell Quest software (BD Biosciences, San Jose, Calif.). The growth of Ech3937 in MM supplemented with different concentrations of PCA was recorded. Compared with MM alone, the average GFP fluorescence intensity of bacterial cells of Ech3937 (phrpA) was reduced more than 4-fold when 0.05 and 0.1 mM of PCA were added to the medium (FIGS. 16A, 16B).

hrpA promoter (T3SS) = assay: GFP reporter plasmid phrpA, flow cytometry (FACS) of hrpA promoter activity; assay type: cell-based, Dickeya dadantii 3937; conditions: for GFP Mean Fluorescence Intensity, hrpA promoter: MM + 0.1 mM compound
Summary of the method: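 D. dadantii (Ech) 3937 carrying the phrpA promoter–GFP transcriptional fusion was grown in T3SS minimal medium with 100 μM compound, starting from an inoculum of OD600 1.0. GFP was read by flow cytometry at 12 and 24 h. Values are mean fluorescence intensity of three replicates ± SD, with compound-free MM as control.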

hrpS promoter = assay: GFP reporter plasmid phrpS, flow cytometry of hrpS promoter activity; assay type: cell-based, Dickeya dadantii 3937; conditions: MM + 0.1 mM compound, 12 h
Summary of the method: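 Wild-type Ech3937 and mutant strains carrying the phrpS GFP reporter were grown overnight in LB at 28 °C, then transferred to appropriate media with compounds. Cells were washed and resuspended in PBS to ca 10^6 CFU/ml for flow cytometry, three replicates per treatment.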

hrpL promoter = assay: GFP reporter plasmid phrpL, flow cytometry of hrpL promoter activity; assay type: cell-based, Dickeya dadantii 3937; conditions: Ech3937 (phrpL), MM + 0.1 mM compound, 12 h
Protocol: (§2) FACS analysis of promoter activity of dspE, hrpA, hrpL, hrpN, and hrpS was carried out as described (Peng et al., 2006). Briefly, the wild-type Ech3937 and the mutant strains carrying the promoter reporter plasmid were grown on LB broth at 28° C. overnight and transferred to appropriate media. For FACS analysis, samples were collected by centrifugation, washed with 1× phosphate buffer saline (PBS) at 13,000 rpm for 1 min, and re-suspended in 1×PBS to ca 10^6 CFU/ml prior to being run in a FACS Calibur flow cytometer (BD Biosciences, CA). Three replicates were performed for each treatment.

hrpN promoter (T3SS) = assay: GFP reporter plasmid phrpN, flow cytometry of hrpN promoter activity; assay type: cell-based, Dickeya dadantii 3937; conditions: for GFP Mean Fluorescence Intensity, hrpN promoter: MM + 0.1 mM compound
Protocol: as §2, §1

SMILES: O=C(O)/C=C/c1ccccc1O [Compound 006, Ortho-coumaric acid]
- effect on bacterial growth of Ech3937 in MM, in words [1]: No reduction of bacterial growth
- change of average GFP fluorescence intensity of Ech3937 (phrpA) vs MM alone, in words (hrpA promoter (T3SS); 0.1 mM, 12 h): doubled
- GFP Mean Fluorescence Intensity, hrpA promoter (hrpA promoter (T3SS); Ech3937 (phrpA), 12 h, listed as OCA): 82 ± 1
- GFP Mean Fluorescence Intensity, hrpA promoter (hrpA promoter (T3SS); Ech-Rif (phrpA), 6 h): 18 ± 0
- GFP Mean Fluorescence Intensity, hrpA promoter (hrpA promoter (T3SS); Ech-Rif (phrpA), 12 h): 51 ± 2
- GFP Mean Fluorescence Intensity, hrpA promoter (hrpA promoter (T3SS); Ech-Rif (phrpA), 24 h): 49 ± 1
- GFP Mean Fluorescence Intensity, hrpA promoter (hrpA promoter (T3SS); gacA mutant Ech137 (phrpA), 6 h): 4.9 ± 0.1
- GFP Mean Fluorescence Intensity, hrpA promoter (hrpA promoter (T3SS); gacA mutant Ech137 (phrpA), 12 h): 5.9 ± 0.1
- GFP Mean Fluorescence Intensity, hrpA promoter (hrpA promoter (T3SS); gacA mutant Ech137 (phrpA), 24 h): 8.3 ± 0
- GFP Mean Fluorescence Intensity, hrpA promoter (hrpA promoter (T3SS); hrpL mutant WPP96 (phrpA), 12 h): 6.5 ± 0.2
- GFP Mean Fluorescence Intensity, hrpS promoter (hrpS promoter; Ech3937 (phrpS)): 56 ± 1
- GFP Mean Fluorescence Intensity, hrpS promoter (hrpS promoter; hrpL mutant WPP96 (phrpS)): 350 ± 17
- GFP Mean Fluorescence Intensity, hrpL promoter (hrpL promoter): 19 ± 0
- hrpN expression in Ech3937 and hrpX, hrpY, hrpS mutants, in words (hrpN promoter (T3SS); 0.1 mM, 12 h (FIG. 5)): induced the expression of hrpN in Ech3937, but not in hrpX, hrpY, and hrpS mutants
- GFP Mean Fluorescence Intensity, hrpN promoter (hrpN promoter (T3SS); Ech3937 (phrpN), 6 h): 31 ± 3
- GFP Mean Fluorescence Intensity, hrpN promoter (hrpN promoter (T3SS); Ech3937 (phrpN), 12 h, listed as OCA): 94 ± 3 and 91 ± 8
- GFP Mean Fluorescence Intensity, hrpN promoter (hrpN promoter (T3SS); Ech3937 (phrpN), 24 h): 78 ± 8
- GFP Mean Fluorescence Intensity, hrpN promoter (hrpN promoter (T3SS); hrpL mutant WPP96 (phrpN), 12 h): 3.3 ± 0.1
- GFP Mean Fluorescence Intensity, hrpN promoter (hrpN promoter (T3SS); iaaM mutant Ech138 (phrpN), 6 h): 9.1 ± 1.6
- GFP Mean Fluorescence Intensity, hrpN promoter (hrpN promoter (T3SS); iaaM mutant Ech138 (phrpN), 12 h): 33 ± 5
- GFP Mean Fluorescence Intensity, hrpN promoter (hrpN promoter (T3SS); iaaM mutant Ech138 (phrpN), 24 h): 39 ± 5

From patent publication US9260382B2, “Methods of reducing virulence in bacteria” (priority 2010, dated 2016)
